In patent publication US20250145608A1, “KRAS DEGRADING COMPOUNDS COMPRISING ANNULATED 2-AMINO-3-CYANO THIOPHENES” (Boehringer Ingelheim Int'l GmbH Corp., priority 2021, published 2025):
Like-named read-outs stand apart in the source and are kept apart here.

Columns and labels:
Type in all cases: cell-based
[1] = test system: LOVO cells; experiment: LOVO CTG proliferation assay (120 h) (CRC, G13D); details: Homo sapiens
Protocol: LOVO CTG Proliferation Assay (120 h) (CRC, G13D)
(§1) LOVO cells (ATCC CCL-229) are dispensed into 384-well plates, flat and clear bottom (Greiner, PNr. 781091) at a density of 1000 cells per well in 60 μL DMEM (Sigma D6429)+10% Fetal Calf Serum (HyClone, PNr.: SH30084.03) and incubated at 37° C. in a CO2 incubator overnight. The next day, compounds (10 mM stock in DMSO) are added with the ECHO acoustic liquid handler system (Beckman Coulter), including DMSO controls. Plates are incubated for 120 h, and cell viability is measured using CellTiter-Glo luminescent cell viability reagent (Promega product code G7570). Viability (stated as percent of control) is defined as relative luminescence units RLU of each well divided by the RLU of cells in DMSO controls. IC50 values are determined from viability measurements by non-linear regression using a four-parameter model.

[2] = test system: A375 cells; experiment: A375 CTG proliferation assay (120 h) (melanoma, wt, B-Raf mutant, negative control); details: Homo sapiens, A-375, negative control cell line
Protocol: A375 CTG Proliferation Assay (120 h) (Melanoma, Wt, B-Raf Mutant, Negative Control)
as §1, with “A375” for “LOVO”, “CRL-1619)” for “CCL-229)”, “300” for “1000”, “at logarithmic dose series using” for “with”, “HP Digital Dispenser D300 (Tecan),” for “ECHO acoustic liquid handler system (Beckman Coulter),”

[3] = test system: NCI-H358 cells; experiment: NCI-H358 CTG proliferation assay (120 h) (NSCLC, G12C); details: Homo sapiens
Outline: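 IC50 values derive from four-parameter nonlinear regression of CellTiter-Glo viability (RLU relative to DMSO wells) after 120 h of exposure. Cells were plated in RPMI-1640 + 10% FCS at 2000 per well (assay 1) or 200 per well (assay 2). Untreated cells were measured at compound addition as T0.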

[4] = target: T1, KRAS4B WT (Homo sapiens, UniProt P01116); experiment: HiBit KRAS4B mutant spectrum degradation assay, KRAS4B WT in GP5d cells (18 h); details: KRAS mutation G12WT
T1 construct: HiBit; expressed in transfected cells; host or cells: GP5d cells (ECACC 95090715), stably transduced with lentivirus, CMV promoter
T1 sequence (P01116 1-188 isoform P01116-2): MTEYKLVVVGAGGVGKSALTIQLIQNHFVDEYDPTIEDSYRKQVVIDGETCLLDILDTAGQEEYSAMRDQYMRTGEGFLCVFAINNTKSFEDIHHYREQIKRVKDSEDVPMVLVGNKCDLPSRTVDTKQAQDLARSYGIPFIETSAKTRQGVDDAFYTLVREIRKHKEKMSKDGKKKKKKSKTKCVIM
From the text: (§2) The therapeutically relevant mutant KRAS constructs (WT, G12C, G12D, G12V, G13D) were obtained by site directed mutagenesis using a KRAS4B WT cDNA construct as a template. GP5d cells (ECACC Cat. No. 95090715) were transduced with lentiviral vectors expressing mutant KRAS4B cDNA under control of a CMV promoter. Stably transduced cells were selected using a neomycin selectable marker encoded on the construct.
(§3) To assess PROTAC-mediated degradation of various KRAS mutants, GP5d cells stably transduced with KRAS4B constructs as described above were seeded at 25000 cells per well in 100 μL Dulbecco's Modified Eagle medium (Sigma cat. no. D6429) supplemented with 10% fetal calf serum into white bottom opaque 96 well plates (Perkin Elmer cat no. 5680). Plates were incubated at 37° C., 5% CO2 in a humidified incubator over night to allow the cells to adhere. […] Plates were further incubated at 37° C. for 18 hours. Following incubation, 100 μL per well Promega Nano-Glo HiBit lytic detection reagent mix (Promega Nano-Glo HiBit Lytic Detection System #N3050), prepared according to the manufacturer's instructions in the kit, were added. To allow for adequate cell lysis, plates were incubated on an orbital shaker for 15 min and further incubated 30 min at room temperature. Upon completion of cell lysis, luminescence was measured using an Envision plate reader using the Ultrasensitive Luminescence Protocol for 96 well plates. Luminescence levels were normalized by the values obtained with DMSO-treated samples and plotted as percent of DMSO control. DC50 values were computed using a four parametric logistic model and are reported in nM in Table 65 for representative example (Ex.) compounds of the invention. Dmax values represent the maximal extent of degradation observed and is stated as percent of control (% Ctrl.) treatments in Table 66 for representative example (Ex.) compounds of the invention.

[5] = target: T2, KRAS4B G12C (Homo sapiens, UniProt P01116, G12C); experiment: HiBit KRAS4B mutant spectrum degradation assay, KRAS4B G12C in GP5d cells (18 h); details: KRAS mutation G12C
T2 construct: HiBit; expressed in transfected cells; host or cells: GP5d cells (ECACC 95090715), stably transduced with lentivirus, CMV promoter
T2 sequence (P01116 1-188 isoform P01116-2 G12C): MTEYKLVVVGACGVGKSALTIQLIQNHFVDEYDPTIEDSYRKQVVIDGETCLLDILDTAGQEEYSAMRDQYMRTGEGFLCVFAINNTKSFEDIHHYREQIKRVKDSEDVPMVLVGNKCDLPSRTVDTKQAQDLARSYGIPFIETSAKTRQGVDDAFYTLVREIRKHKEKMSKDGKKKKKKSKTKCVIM
From the text: as §2, §3

[6] = target: T3, KRAS4B G12V (Homo sapiens, UniProt P01116, G12V); experiment: HiBit KRAS4B mutant spectrum degradation assay, KRAS4B G12V in GP5d cells (18 h); details: KRAS mutation G12V
T3 construct: HiBit; expressed in transfected cells; host or cells: GP5d cells (ECACC 95090715), stably transduced with lentivirus, CMV promoter
T3 sequence (P01116 1-188 isoform P01116-2 G12V): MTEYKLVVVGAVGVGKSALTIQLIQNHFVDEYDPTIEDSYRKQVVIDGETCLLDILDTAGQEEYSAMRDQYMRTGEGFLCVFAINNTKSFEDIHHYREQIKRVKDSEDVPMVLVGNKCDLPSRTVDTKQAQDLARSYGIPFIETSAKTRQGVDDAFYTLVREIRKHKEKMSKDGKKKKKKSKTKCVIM
From the text: as §2, §3

[7] = target: T4, KRAS4B G13D (Homo sapiens, UniProt P01116, G13D); experiment: HiBit KRAS4B mutant spectrum degradation assay, KRAS4B G13D in GP5d cells (18 h); details: KRAS mutation G13D
T4 construct: HiBit; expressed in transfected cells; host or cells: GP5d cells (ECACC 95090715), stably transduced with lentivirus, CMV promoter
T4 sequence (P01116 1-188 isoform P01116-2 G13D): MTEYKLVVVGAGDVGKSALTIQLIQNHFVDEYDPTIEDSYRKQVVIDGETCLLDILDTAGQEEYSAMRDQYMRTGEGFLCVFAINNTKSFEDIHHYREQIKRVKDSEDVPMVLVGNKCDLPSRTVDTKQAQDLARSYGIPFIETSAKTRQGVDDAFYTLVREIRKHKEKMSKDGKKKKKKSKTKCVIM
From the text: as §2, §3

[8] = assay 1, read-out: H358 (assay 1) IC50
[9] = assay 2, read-out: H358 (assay 2) IC50

SMILES: Cc1ncsc1-c1ccc([C@@H](NC(=O)[C@@H]2C[C@@H](O)CN2C(=O)[C@H](C(C)C)n2cc(OCCCCN3CCCN(c4nccc(-c5noc([C@@]6(C)CCCc7sc(N)c(C#N)c76)n5)n4)[C@@H](C)C3)nn2)[C@H](O)C(C)C)cc1 (single isomer, unassigned) [I-45]
- IC50 [1]: 43 nM
- IC50 [2]: ≥ 3000 nM
- IC50 [3, 8]: 98.6 nM
- IC50 [3, 9]: 13.4 nM

SMILES: Cc1ncsc1-c1ccc(CNC(=O)[C@@H]2C[C@@H](O)CN2C(=O)[C@@H](c2cc(OCCCCN3CCCN(c4nccc(-c5noc([C@@]6(C)CCCc7sc(N)c(C#N)c76)n5)n4)[C@@H](C)C3)no2)C(C)C)cc1 (single isomer, unassigned) [I-27]
- IC50 [1]: 40.9 nM
- IC50 [2]: ≥ 3000 nM
- DC50 [4]: 0.7 nM
- Dmax at 18 h [4]: 95.5 % Ctrl.
- DC50 [5]: 3.7 nM
- Dmax at 18 h [5]: 83 % Ctrl.
- IC50 [3, 8]: 60.5 nM
- IC50 [3, 9]: 35.2 nM
- DC50 [6]: 2.7 nM
- Dmax at 18 h [6]: 86 % Ctrl.
- DC50 [7]: 1.6 nM
- Dmax at 18 h [7]: 93 % Ctrl.

SMILES: Cc1ncsc1-c1ccc(CNC(=O)[C@@H]2C[C@@H](O)CN2C(=O)C(c2cc(OCCCCN3CCCN(c4nccc(-c5cc([C@@]6(C)CCCc7sc(N)c(C#N)c76)on5)n4)[C@@H](C)C3)no2)C(C)C)cc1 (stereo partly shown) [I-4]
- IC50 [1]: 425 nM
- IC50 [3, 8]: 445 nM
- IC50 [3, 9]: 196 nM

SMILES: Cc1ncsc1-c1ccc([C@@H](NC(=O)[C@@H]2C[C@@H](O)CN2C(=O)[C@H](C(C)C)n2cc(OCCCCN3CCCN(c4nccc(-c5noc([C@@]6(C)CCCc7sc(N)c(C#N)c76)n5)n4)[C@@H](C)C3)nn2)[C@H](C)O)cc1 (single isomer, unassigned) [I-41]
- IC50 [1]: 29.3 nM
- IC50 [2]: ≥ 3000 nM
- DC50 [4]: 0.5 nM
- Dmax at 18 h [4]: 98.0 % Ctrl.
- DC50 [5]: 1.2 nM
- Dmax at 18 h [5]: 96.2 % Ctrl.
- IC50 [3, 8]: 59.6 nM
- IC50 [3, 9]: 14.9 nM
- DC50 [6]: 2.5 nM
- Dmax at 18 h [6]: 90.8 % Ctrl.
- DC50 [7]: 0.8 nM
- Dmax at 18 h [7]: 89.7 % Ctrl.

SMILES: Cc1ncsc1-c1ccc([C@H](CO)NC(=O)[C@@H]2C[C@@H](O)CN2C(=O)[C@H](C(C)C)n2cc(OCCCCN3CCCN(c4nccc(-c5noc([C@@]6(C)CCCc7sc(N)c(C#N)c76)n5)n4)[C@@H](C)C3)nn2)cc1 [I-29]
- IC50 [1]: 44 nM
- IC50 [2]: ≥ 3000 nM
- DC50 [4]: 0.8 nM
- Dmax at 18 h [4]: 97.2 % Ctrl.
- DC50 [5]: 1.4 nM
- Dmax at 18 h [5]: 95.6 % Ctrl.
- IC50 [3, 8]: 28.8 nM
- DC50 [6]: 3.5 nM
- Dmax at 18 h [6]: 90.5 % Ctrl.
- DC50 [7]: 1.2 nM
- Dmax at 18 h [7]: 89.7 % Ctrl.

SMILES: Cc1ncsc1-c1ccc(CNC(=O)[C@@H]2C[C@@H](O)CN2C(=O)[C@H](c2cc(OCCCN3CCCN(c4nccc(-c5noc([C@@]6(C)CCCc7sc(N)c(C#N)c76)n5)n4)[C@@H](C)C3)no2)C(C)C)cc1 (single isomer, unassigned) [I-24]
- IC50 [1]: 1950 nM
- IC50 [3, 8]: 1070 nM
- IC50 [3, 9]: 1440 nM

SMILES: CC(C)C(C(=O)N1C[C@H](O)C[C@H]1C(=O)NCc1ccc(C#N)cc1)c1cc(OCCCCN2CCCN(c3nccc(-c4noc([C@@]5(C)CCCc6sc(N)c(C#N)c65)n4)n3)[C@@H](C)C2)no1 (stereo partly shown) [I-16]
- IC50 [1]: 1820 nM
- IC50 [2]: ≥ 3000 nM
- IC50 [3, 8]: 231 nM
- IC50 [3, 9]: 85.5 nM
